Measured values: patent US11504368B2, “2,6-diamino-3,4-dihydropyrimidin-4-one derivatives and use thereof in therapy” (THOMAS HELLEDAYS STIFTELSE FÖR MEDICINSK FORSKNING, priority 2018, dated 2022)

How the values were obtained:
MTHFD2 = MTHFD2 (Homo sapiens (Human), UniProt P13995); assay: Inhibition of MTHFD2 (NAD(P)H-Glo luminescence); format: biochemical; details: 3.4 nmol/L MTHFD2, 5 μmol/L folitixorin, 250 μmol/L NAD+; mean of at least 3 independent measurements
Procedure: DMSO was used as negative control. The serial dilution in DMSO, from compound DMSO stock solution, was created by dispensing from a 384-well low dead volume microplate (LP-0200, Labcyte) and a 384-well polypropylene microplate 2.0 (PP-0200, Labcyte). A total of 2.5 μL MTHFD2 was preincubated with compound or DMSO for 10 min. The enzymatic reaction was initiated by adding 2.5 μL folitixorin (F680350, Toronto Research Chemicals). For background control, 5 μL buffer was added to the well. […] The final concentrations of all reagents in a total assay volume of 5 μL per well were 50 mmol/L Tris-HCl at pH 8.0, 100 mmol/L NaCl, 5 mmol/L MgCl2, 25 mmol/L Na3PO4 at pH 8.0, 0.005% (v/v) Tween-20, and 2 mmol/L 2-mercaptoethanol. After 15 min reaction time, 5 μL NAD(P)H-Glo detection reagent (G9061 or G9062, Promega) was dispensed in all wells and the plate was incubated for 60 min. Luminescence was measured on a plate reader (Envision, PerkinElmer or Sense, Hidex). The light signal produced is proportional to the amount of NAD(P)H in the sample. IC50 values were determined by fitting a four parameter sigmoidal curve model using XLfit (IDBS). Reported IC50 values are the mean of at least 3 independent measurements.

HL-60 cells = assay: Cancer cell viability assay (HL-60, resazurin); format: cell-based; details: Homo sapiens, 96 h, mean of at least 3 independent measurements, read-out: HL60 cell proliferation inhibition EC50
Procedure: HL-60 cells (human promyelocytic leukemia cells) were seeded in a 384-well plate at a density of 2,000 cells per well in 50 μL induction medium and treated with vehicle (DMSO) or an 11-point concentration range with 3-fold dilution in concentration of compound. Each assay point was run in duplicate. Wells without cells but with DMSO were used as negative controls. The cells were left to proliferate over a period of 96 h, in an incubator at 37° C. and 5% CO2, followed by an addition of 10 μL […] resazurin sodium salt (199303, Sigma-Aldrich) dissolved in DPBS (14190, Gibco). After 4 h of incubation at 37° C. and 5% CO2, the fluorescent signal was measured using an excitation wavelength of 544 nm and an emission wavelength of 595 nm in a Hidex Sense plate reader. Cell plates were incubated in boxes with damp paper tissues to avoid evaporation. All additions, except compound and DMSO, were done using the Multidrop Combi (Thermo Fisher Scientific). DMSO and compounds were pre-dispensed with an Echo 550 Liquid handler (Labcyte) in black, clear bottom, TC-treated and sterile 384-well plates (3764, Corning). Growth medium consisted of RPMI 1640 GlutaMAX (61870, Gibco), 10% (v/v) FBS (10500, Gibco), and 1% (v/v) P/S (15070, Gibco). Induction medium consisted of RPMI 1640 GlutaMAX (61870, Gibco), 5% (v/v) FBS (10500, Gibco), and 1% (v/v) P/S (15070, Gibco). EC50 values were determined by fitting a four parameter sigmoidal curve model using XLfit (IDBS). Reported EC50 values are the mean of at least 3 independent measurements.

Chain of MTHFD2 (P13995 36-350): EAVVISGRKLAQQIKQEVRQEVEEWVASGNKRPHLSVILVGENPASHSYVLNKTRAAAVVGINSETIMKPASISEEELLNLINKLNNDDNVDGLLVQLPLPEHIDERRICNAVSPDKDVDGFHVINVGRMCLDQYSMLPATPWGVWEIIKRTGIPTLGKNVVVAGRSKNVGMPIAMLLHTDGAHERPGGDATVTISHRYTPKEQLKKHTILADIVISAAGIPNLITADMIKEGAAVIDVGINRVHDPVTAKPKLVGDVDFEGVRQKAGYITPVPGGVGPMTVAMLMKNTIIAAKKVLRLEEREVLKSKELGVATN

Row | SMILES | IC50 (MTHFD2) [nM] | EC50 (HL-60 cells) [nM]
1 | Nc1nc(N)c(CC(=O)Nc2cnc(C(=O)N[C@@H](CCc3nnn[nH]3)C(=O)O)c(F)c2)c(=O)[nH]1 [Example 32, (2S)-2-((5-[2-(2,4-diamino-6-oxo-1,6-dihydropyrimidin-5-yl)acetamido]-3-fluoropyridin-2-yl)formamido)-4-(1H-1,2,3,4-tetrazol-5-yl)butanoic acid] | 13 | 10
2 | Nc1nc(N)c(NC(=O)Nc2cnc(C(=O)N[C@@H](CCc3nnn[nH]3)C(=O)O)c(F)c2)c(=O)[nH]1 [Example 24, (2S)-2-[(5-{[(2,4-diamino-6-oxo-1,6-dihydropyrimidin-5-yl)carbamoyl]amino}-3-fluoropyridin-2-yl)formamido]-4-(1H-1,2,3,4-tetrazol-5-yl)butanoic acid] | 3 | 2
3 | CC(C)[C@H](NC(=O)c1ccc(NC(=O)Cc2c(N)nc(N)[nH]c2=O)cn1)C(=O)O [Example 13, (2S)-2-({5-[2-(2,4-diamino-6-oxo-1,6-dihydropyrimidin-5-yl)acetamido]pyridin-2-yl}formamido)-3-methylbutanoic acid] | 103 | 215
4 | CC(C)[C@H](NC(=O)c1ncc(NC(=O)Nc2c(N)nc(N)[nH]c2=O)cc1F)C(=O)O [Example 31, (2S)-2-[(5-{[(2,4-diamino-6-oxo-1,6-dihydropyrimidin-5-yl)carbamoyl]amino}-3-fluoropyridin-2-yl)formamido]-3-methylbutanoic acid] | 8 | 20
5 | Nc1nc(N)c(CC(=O)Nc2cnc(C(=O)N[C@@H](Cc3ccccc3)C(=O)O)c(F)c2)c(=O)[nH]1 [Example 33, (2S)-2-((5-[2-(2,4-diamino-6-oxo-1,6-dihydropyrimidin-5-yl)acetamido]-3-fluoropyridin-2-yl)formamido)-3-phenylpropanoic acid] | 92 | 24
6 | Nc1nc(N)c(NC(=O)Nc2ccc(C(=O)N[C@H](C(=O)O)C3CCCCC3)nc2)c(=O)[nH]1 [Example 12, (2S)-2-cyclohexyl-2-[(5-{[(2,4-diamino-6-oxo-1,6-dihydropyrimidin-5-yl)carbamoyl]amino}pyridin-2-yl)formamido]acetic acid] | 17 | 7
7 | Nc1nc(N)c(CC(=O)Nc2cnc(C(=O)N[C@@H](CCC(=O)O)C(=O)O)c(F)c2)c(=O)[nH]1 [Example 10, (2S)-2-((5-[2-(2,4-diamino-6-oxo-1,6-dihydropyrimidin-5-yl)acetamido]-3-fluoropyridin-2-yl)formamido)pentanedioic acid] |  | 14

More lines, now with the values ahead:

Row | IC50 (MTHFD2) [nM] | EC50 (HL-60 cells) [nM] | SMILES
8 | 195 | 12800 | Nc1nc(N)c(NC(=O)Nc2ccc(C(=O)N[C@@H](CC(=O)O)C(=O)O)nc2)c(=O)[nH]1 [Example 22, (2S)-2-[(5-{[(2,4-diamino-6-oxo-1,6-dihydropyrimidin-5-yl)carbamoyl]amino}pyridin-2-yl)formamido]butanedioic acid]
9 | 30 | 1940 | Nc1nc(N)c(NC(=O)Nc2ccc(C(=O)N[C@@H](CCC(=O)N[C@H](CCC(=O)O)C(=O)O)C(=O)O)nc2)c(=O)[nH]1 [Example 25, (2R)-2-[(4S)-4-carboxy-4-[(5-{[(2,4-diamino-6-oxo-1,6-dihydropyrimidin-5-yl)carbamoyl]amino}pyridin-2-yl)formamido]butanamido]pentanedioic acid]
10 | 11 | 197 | Nc1nc(N)c(NC(=O)Nc2ccc(C(=O)N[C@@H](CCC(=O)NS(=O)(=O)c3ccccc3)C(=O)O)nc2)c(=O)[nH]1 [Example 16, (2S)-4-[(benzenesulfonyl)carbamoyl]-2-[(5-{[(2,4-diamino-6-oxo-1,6-dihydropyrimidin-5-yl)carbamoyl]amino}pyridin-2-yl)formamido]butanoic acid]
11 |  | 187 | Nc1nc(N)c(NC(=O)Nc2ccc(C(=O)N[C@@H](CCc3ccccc3)C(=O)O)nc2)c(=O)[nH]1 [Example 14, (2S)-2-[(5-{[(2,4-diamino-6-oxo-1,6-dihydropyrimidin-5-yl)carbamoyl]amino}pyridin-2-yl)formamido]-4-phenylbutanoic acid]
